Experimental data from the supplement of paper PMC10307832.

Key:
Experiment in all cases: relative viability (nuclei count vs DMSO), 5 days (fraction); higher = more cells survive
IU1-47 + Tozasertib = compound: CC1=CC(=C(N1C2=CC=C(C=C2)Cl)C)C(=O)CN3CCCCC3 [IU1-47] + Cc1cc(Nc2cc(N3CCN(C)CC3)nc(Sc3ccc(NC(=O)C4CC4)cc3)n2)n[nH]1 [Tozasertib] (partner 0.1 µM)
How it was run: (§1)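 For relative viability, nuclei counts in treated wells were divided by those in vehicle wells. Lung cancer cell lines had been pin-tool dosed in 1536-well plates the day after seeding and cultured for 5 days, then fixed and stained in one step (final 0.05% Triton X-100, 1% formaldehyde, 1 ug/ml Hoechst) and imaged at 4×. Doses were one drug alone or a fixed anchor-drug dose plus five library-drug doses (not always all listed) in √10 steps, and values are duplicate-plate medians.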

FG-4592 + Navitoclax = compound: Cc1nc(C(=O)NCC(=O)O)c(O)c2ccc(Oc3ccccc3)cc12 [FG-4592] + CC1(C)CCC(c2ccc(Cl)cc2)=C(CN2CCN(c3ccc(C(=O)NS(=O)(=O)c4ccc(N[C@H](CCN5CCOCC5)CSc5ccccc5)c(S(=O)(=O)C(F)(F)F)c4)cc3)CC2)C1 [Navitoclax] (partner 0.5 µM)
How it was run: as §1

FG-4592 + Crizotinib = compound: Cc1nc(C(=O)NCC(=O)O)c(O)c2ccc(Oc3ccccc3)cc12 [FG-4592] + C[C@@H](Oc1cc(-c2cnn(C3CCNCC3)c2)cnc1N)c1c(Cl)ccc(F)c1Cl [Crizotinib] (partner 1 µM)
How it was run: as §1

FG-4592 + Pemetrexed = compound: Cc1nc(C(=O)NCC(=O)O)c(O)c2ccc(Oc3ccccc3)cc12 [FG-4592] + Nc1nc2[nH]cc(CCc3ccc(C(=O)N[C@@H](CCC(=O)O)C(=O)O)cc3)c2c(=O)[nH]1 [Pemetrexed] (partner 0.2 µM)
How it was run: as §1

| Cell Line | relative viability (IU1-47 + Tozasertib; first compound 0.08 µM) | relative viability (IU1-47 + Tozasertib; first compound 0.253 µM) | relative viability (IU1-47 + Tozasertib; first compound 0.8 µM) | relative viability (IU1-47 + Tozasertib; first compound 2.53 µM) | relative viability (IU1-47 + Tozasertib; first compound 8 µM) | relative viability (FG-4592 + Navitoclax; first compound 0.08 µM) | relative viability (FG-4592 + Navitoclax; first compound 0.253 µM) | relative viability (FG-4592 + Navitoclax; first compound 0.8 µM) | relative viability (FG-4592 + Navitoclax; first compound 2.53 µM) | relative viability (FG-4592 + Navitoclax; first compound 8 µM) | relative viability (FG-4592 + Crizotinib; first compound 0.08 µM) | relative viability (FG-4592 + Crizotinib; first compound 0.253 µM) | relative viability (FG-4592 + Crizotinib; first compound 0.8 µM) | relative viability (FG-4592 + Crizotinib; first compound 2.53 µM) | relative viability (FG-4592 + Crizotinib; first compound 8 µM) | relative viability (FG-4592 + Pemetrexed; first compound 0.08 µM) | relative viability (FG-4592 + Pemetrexed; first compound 0.253 µM) | relative viability (FG-4592 + Pemetrexed; first compound 0.8 µM) | relative viability (FG-4592 + Pemetrexed; first compound 2.53 µM) | relative viability (FG-4592 + Pemetrexed; first compound 8 µM) |
| --- | --- | --- | --- | --- | --- | --- | --- | --- | --- | --- | --- | --- | --- | --- | --- | --- | --- | --- | --- | --- |
| ChaGo-K-1 | 0.203 | 0.216 | 0.263 | 0.215 | 0.228 | 1.04 | 1.03 | 0.708 | 1.15 | 0.54 | 1.12 | 1.09 | 1.14 | 1.09 | 0.942 | 0.266 | 0.258 | 0.26 | 0.26 | 0.274 |
| COR-L 105 | 0.372 | 0.387 | 0.379 | 0.355 | 0.326 | 0.777 | 0.709 | 0.919 | 0.595 | 0.74 | 0.785 | 0.578 | 0.77 | 0.898 | 0.723 | 1.03 | 0.92 | 1.13 | 1.14 | 0.877 |
| NCI-H1975 | 0.925 | 0.85 | 0.719 | 0.882 | 0.487 | 1.21 | 1.1 | 1.29 | 1.1 | 1.06 | 0.921 | 0.892 | 1.11 | 0.991 | 0.897 | 0.27 | 0.293 | 0.292 | 0.268 | 0.307 |
| NCI-H1993 | 0.525 | 0.619 | 0.645 | 0.602 | 0.54 | 0.946 | 0.907 | 0.696 | 1.09 | 0.898 | 0.969 | 0.873 | 0.919 | 0.834 | 0.828 | 0.644 | 0.48 | – | 0.487 | 0.594 |
| RERF-LC-KJ | 0.495 | 0.567 | 0.522 | 0.452 | 0.405 | 0.87 | 0.691 | 1.06 | 1.07 | 0.622 | 0.798 | 0.8 | 0.849 | 0.837 | 0.771 | 0.466 | 0.472 | 0.481 | 0.486 | 0.498 |
| NCI-H23 | 0.364 | 0.341 | 0.427 | 0.376 | 0.341 | 0.832 | 0.786 | 0.809 | 0.744 | 0.708 | 0.556 | 0.471 | 0.654 | 0.627 | 0.472 | 0.567 | 0.562 | 0.644 | 0.534 | 0.793 |
| HCC-366 | 0.15 | 0.217 | 0.132 | 0.154 | 0.112 | 1.07 | 0.903 | 1.12 | 1.1 | 1.04 | 0.469 | 0.471 | 0.565 | 0.628 | 0.325 | 0.182 | 0.148 | 0.242 | 0.181 | 0.258 |
